Data taken from patent US7960131B2, “Functional genomic pore assay for mixed cell populations” (Wisconsin Alumni Research Foundation, priority 2003, dated 2011).
Changes are numbered by the printed parent chain. Several values for one entry are separate records, joined by “and”; a condition that tells them apart may be missing. Identical values can stand only once.

Assays:
Type in all cases: cell-based
[1] = biological target: T1, P2X7 wild type (Homo sapiens, UniProt Q99572); assay: YO-PRO-1 uptake fluorimetric plate assay in transfected HEK 293 cells, P2X7 wild type; conditions: HEK cells expressing P2X7 wild type, HEPES-buffered saline
T1 construct: expressed in transfected cells
T1 sequence (Q99572 1-595): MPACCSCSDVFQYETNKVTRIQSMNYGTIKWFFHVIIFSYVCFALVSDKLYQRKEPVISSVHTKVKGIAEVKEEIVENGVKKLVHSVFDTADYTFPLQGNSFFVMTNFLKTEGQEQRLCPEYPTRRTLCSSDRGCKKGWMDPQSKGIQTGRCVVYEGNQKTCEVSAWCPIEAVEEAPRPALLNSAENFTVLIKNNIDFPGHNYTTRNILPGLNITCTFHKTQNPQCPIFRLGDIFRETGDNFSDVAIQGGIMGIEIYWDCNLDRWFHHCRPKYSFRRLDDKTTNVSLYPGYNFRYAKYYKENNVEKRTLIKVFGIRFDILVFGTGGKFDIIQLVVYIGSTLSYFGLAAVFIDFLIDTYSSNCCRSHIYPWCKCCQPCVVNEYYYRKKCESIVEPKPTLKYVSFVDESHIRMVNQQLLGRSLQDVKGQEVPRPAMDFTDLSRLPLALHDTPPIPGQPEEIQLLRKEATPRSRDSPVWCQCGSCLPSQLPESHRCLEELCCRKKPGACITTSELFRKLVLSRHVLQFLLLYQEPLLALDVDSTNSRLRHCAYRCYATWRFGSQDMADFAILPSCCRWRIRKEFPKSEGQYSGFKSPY
Source text: (§1) Recombinant Expression and Functional Characterization of Variant P2RX7 Alleles. A pcDNA3 expression vector containing a cloned human P2RX7 cDNA associated with normal pore activity was subjected to point mutagenesis using the Quick Change Kit (Stratagene Inc., city, state) to create the variants P2X7-G150R, P2X7-Q460R, and P2X7-E496A. HEK 293 cells were transfected by the Superfect liposomal method and stable populations were selected by G418 resistance. Expression of P2X7 mRNA and protein in unstimulated transfected HEK cell cultures was verified by RT-PCR and immunoblotting as previously described.
(§2) YO-PRO-1 fluorescence was measured by a Synergy-HT fluorescent plate reader (Biotek, city, state) using X±Y nm excitation and A±B emission filters.

[2] = biological target: T2, P2X7-G150R (Homo sapiens, UniProt Q99572, G150R); assay: YO-PRO-1 uptake fluorimetric plate assay in transfected HEK 293 cells, P2X7-G150R; conditions: G150R (G474A) mutant, also in more permissive buffer lacking NaCl
T2 construct: expressed in transfected cells
T2 sequence (Q99572 1-595 G150R): T1 sequence (Q99572 1-595) with G150R
Source text: as §1, §2

[3] = biological target: T3, P2X7-E496A (Homo sapiens, UniProt Q99572, E496A); assay: YO-PRO-1 uptake fluorimetric plate assay in transfected HEK 293 cells, P2X7-E496A; conditions: E496A variant
T3 construct: expressed in transfected cells
T3 sequence (Q99572 1-595 E496A): T1 sequence (Q99572 1-595) with E496A
Source text: as §1, §2

[4] = biological target: T4, P2X7 (Homo sapiens, UniProt Q99572); assay: YO-PRO-1 plate assay of P2X7 agonists with astrocytoma cell line 1321N1; conditions: for YO-PRO-1 fluorescence (485/20, 528/20), single well: 5 × 10^4 1321N1 cells; for YO-PRO-1 fluorescence, average of duplicate wells: 1321N1 cells, agent + YOPRO;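 for all read-outs here: dye uptake read after 20 min agonist exposure with YO-PRO-1 present, unbound dye removed by washing before reading in a fluorescence plate reader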
T4 construct: host or cells: astrocytoma cell line (the earlier reading names it 1321N1)
T4 sequence (Q99572 1-595): T1 sequence (Q99572 1-595)

## 2′-3′-O-(4-benzoylbenzoyl)-adenosine 5′-triphosphate [Bz-ATP]
[1]
  EC50: 30 µM
  increase of YO-PRO-1 fluorescence by Bz-ATP stimulation: roughly four
[2]
  agonist stimulated increase in YO-PRO-1 fluorescence: loss of pore function
[2]; listed as BzATP
  agonist stimulated increase in YO-PRO-1 fluorescence: no agonist stimulated increase in fluorescence
[3]; potassium glutamate buffer
  increase in YO-PRO-1 fluorescence: approximately half-maximal increase
[3]; saline-containing buffers
  agonist-inducible pore activity: lacking agonist-inducible pore activity
[4]; agent 1 μM + YOPRO
  YO-PRO-1 fluorescence (485/20, 528/20), single well: 98 and 89
[4]; agent 3 μM + YOPRO
  YO-PRO-1 fluorescence (485/20, 528/20), single well: 188
[4]; agent 10 μM + YOPRO
  YO-PRO-1 fluorescence (485/20, 528/20), single well: 213
[4]; agent 30 μM + YOPRO
  YO-PRO-1 fluorescence (485/20, 528/20), single well: 217
[4]; agent 100 μM + YOPRO
  YO-PRO-1 fluorescence (485/20, 528/20), single well: 223 and 214
[4]; agent 300 μM + YOPRO
  YO-PRO-1 fluorescence (485/20, 528/20), single well: 220 and 232
[4]; 1 uM
  YO-PRO-1 fluorescence, average of duplicate wells: 93.5
[4]; 3 uM
  YO-PRO-1 fluorescence, average of duplicate wells: 188
